In the supplement of paper PMC10307832:

Tests used:
Assay in all cases: relative viability (nuclei count vs DMSO), 5 days (fraction); higher = more cells survive
HARA = test system: HARA
Method in brief: (§1)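 Nuclei were stained with Hoechst during a one-step fixation (final 0.05% Triton X-100, 1% formaldehyde, 1 ug/ml Hoechst) carried out 5 days after dosing, then counted on 4× images. The cells, lung cancer lines in 1536-well plates, had been dosed by pin tool the day after seeding with one drug alone or a fixed anchor-drug dose plus five library-drug doses (not always all listed) in √10 steps. Relative viability is the nuclei count in treated wells divided by that in vehicle wells, and each value is the median of duplicate plates.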

NCI-H1975 = test system: NCI-H1975
Method in brief: as §1

COR-L23 = test system: COR-L23
Method in brief: as §1

NCI-H23 = test system: NCI-H23
Method in brief: as §1

201T = test system: 201T
Method in brief: as §1

NCI-H2342 = test system: NCI-H2342
Method in brief: as §1

EKVX = test system: EKVX
Method in brief: as §1

SW 900 = test system: SW 900
Method in brief: as §1

NCI-H1792 = test system: NCI-H1792
Method in brief: as §1

BEN = test system: BEN
Method in brief: as §1

NCI-H838 = test system: NCI-H838
Method in brief: as §1

For `CC(=O)O[C@@]12CO[C@@H]1C[C@H](O)[C@@]1(C)C(=O)[C@H](O)C3=C(C)[C@@H](OC(=O)[C@H](O)[C@@H](NC(=O)OC(C)(C)C)c4ccccc4)C[C@@](O)([C@@H](OC(=O)c4ccccc4)[C@H]21)C3(C)C` [Docetaxel] + CCNC(=O)c1noc(-c2cc(C(C)C)c(O)cc2O)c1-c1ccc(CN2CCOCC2)cc1 [Luminespib] (partner 0.01 µM), the relative viability (HARA; first compound 0.000632 µM) was 0.124, the relative viability (HARA; first compound 0.002 µM) was 0.0629 and the relative viability (HARA; first compound 0.006325 µM) was 0.0587. For the same compound, the relative viability (HARA; first compound 0.02 µM) was 0.0441, the relative viability (NCI-H1975; first compound 0.0002 µM) was 0.364 and the relative viability (NCI-H1975; first compound 0.000632 µM) was 0.24. It also gave a relative viability (NCI-H1975; first compound 0.002 µM) of 0.272, a relative viability (NCI-H1975; first compound 0.006325 µM) of 0.155 and a relative viability (NCI-H1975; first compound 0.02 µM) of 0.181. For the same compound, the relative viability (COR-L23; first compound 0.0002 µM) was 0.632, the relative viability (COR-L23; first compound 0.000632 µM) was 0.622 and the relative viability (COR-L23; first compound 0.002 µM) was 0.131. For the same compound, the relative viability (COR-L23; first compound 0.006325 µM) was 0.128, the relative viability (COR-L23; first compound 0.02 µM) was 0.101 and the relative viability (NCI-H23; first compound 0.0002 µM) was 0.208. It also gave a relative viability (NCI-H23; first compound 0.000632 µM) of 0.224, a relative viability (NCI-H23; first compound 0.002 µM) of 0.233 and a relative viability (NCI-H23; first compound 0.006325 µM) of 0.224. The relative viability (NCI-H23; first compound 0.02 µM) was 0.18, the relative viability (201T; first compound 0.0002 µM) was 1.08 and the relative viability (201T; first compound 0.000632 µM) was 0.907. For the same compound, the relative viability (201T; first compound 0.002 µM) was 0.8, the relative viability (201T; first compound 0.006325 µM) was 0.485 and the relative viability (201T; first compound 0.02 µM) was 0.302. The relative viability (NCI-H2342; first compound 0.0002 µM) was 0.673, the relative viability (NCI-H2342; first compound 0.000632 µM) was 0.677 and the relative viability (NCI-H2342; first compound 0.002 µM) was 0.673. For the same compound, the relative viability (NCI-H2342; first compound 0.006325 µM) was 0.462, the relative viability (NCI-H2342; first compound 0.02 µM) was 0.4 and the relative viability (EKVX; first compound 0.0002 µM) was 0.85. For the same compound, the relative viability (EKVX; first compound 0.000632 µM) was 0.795, the relative viability (EKVX; first compound 0.002 µM) was 0.45 and the relative viability (EKVX; first compound 0.006325 µM) was 0.305. The relative viability (EKVX; first compound 0.02 µM) was 0.161, the relative viability (SW 900; first compound 0.0002 µM) was 0.185 and the relative viability (SW 900; first compound 0.000632 µM) was 0.182. The relative viability (SW 900; first compound 0.002 µM) was 0.174, the relative viability (SW 900; first compound 0.006325 µM) was 0.186 and the relative viability (SW 900; first compound 0.02 µM) was 0.167. For the same compound, the relative viability (NCI-H1792; first compound 0.0002 µM) was 0.43, the relative viability (NCI-H1792; first compound 0.000632 µM) was 0.374 and the relative viability (NCI-H1792; first compound 0.002 µM) was 0.382. For the same compound, the relative viability (NCI-H1792; first compound 0.006325 µM) was 0.338, the relative viability (NCI-H1792; first compound 0.02 µM) was 0.212 and the relative viability (BEN; first compound 0.0002 µM) was 0.0838. It also gave a relative viability (BEN; first compound 0.000632 µM) of 0.377, a relative viability (BEN; first compound 0.002 µM) of 0.373 and a relative viability (BEN; first compound 0.006325 µM) of 0.172. For the same compound, the relative viability (BEN; first compound 0.02 µM) was 0.116, the relative viability (NCI-H838; first compound 0.0002 µM) was 0.389 and the relative viability (NCI-H838; first compound 0.000632 µM) was 0.3. It also gave a relative viability (NCI-H838; first compound 0.002 µM) of 0.138, a relative viability (NCI-H838; first compound 0.006325 µM) of 0.147 and a relative viability (NCI-H838; first compound 0.02 µM) of 0.112.
